The record followed here is patent EP1136552A1, “ATP binding cassette transporter 1 (ABC1) gene polymorphisms and uses thereof for the diagnosis and treatment of lipid disorders, cardiovascular diseases and inflammatory diseases” (Bayer Aktiengesellschaft, priority 2000, dated 2001).

The test system of assay [1] is mononuclear phagocytes. The experiment in a line: ApoA-I mediated cholesterol efflux from cholesterol-loaded monocytes (14C-cholesterol). As to conditions: ApoA-I 10 µg/ml + 24 h pretreatment with forskolin 10 µM, percent of basal efflux, men and women. The assay is classed as cell-based, Human. Here is the method: Cellular Lipid Efflux. Human peripheral blood cells were isolated from lithium-heparin treated blood samples of adult, healthy volunteers. The peripheral blood mononuclear cell fraction was separated by density gradient centrifugation over Ficoll-Histopaque […] (Sigma). Cells positive for CD2, CD7, CD16, CD19 and CD56 were removed by appropriate magnetic beads (Dynal) leaving > 80% pure monocytes. Isolated monocytes were then cultured at a density of 1.5x10^5 cells/mL in polystyrene culture dishes (100x15mm Petri dish, Falcon) in a serum-free macrophage medium (Macrophage-SFM, Gibco Life Technologies) supplemented with 50ng/mL human recombinant M-CSF (R&D Systems). After an overnight incubation cells were cholesterol loaded for 24 hrs by addition of enzymatically modified LDL (E-LDL; 40 µg/ml), which was prepared as previously described (31). […] Lipids were extracted by liquid extraction according to the method of Bligh and Dyer (13). ^3H and ^14C radioactivities of the total lipid extracts were measured by liquid scintillation counting in order to distinguish between ^3H labeled phospholipids and ^14C-cholesterol. Lipid efflux was calculated as percentage of disintegrations per minute (dpm) in medium divided by the sum of dpm recovered from medium and cells. […]

Assay [2] relates to mononuclear phagocytes. The experiment in a line: ApoA-I mediated efflux of choline containing phospholipids from monocytes (3H-choline). The assay is classed as cell-based, Human. As to conditions: ApoA-I 10 µg/ml + 24 h pretreatment with forskolin 10 µM, percent of basal efflux, men and women. The procedure: Cellular Lipid Efflux. Human peripheral blood cells were isolated from lithium-heparin treated blood samples of adult, healthy volunteers. The peripheral blood mononuclear cell fraction was separated by density gradient centrifugation over Ficoll-Histopaque […] (Sigma). Cells positive for CD2, CD7, CD16, CD19 and CD56 were removed by appropriate magnetic beads (Dynal) leaving > 80% pure monocytes. Isolated monocytes were then cultured at a density of 1.5x10^5 cells/mL in polystyrene culture dishes (100x15mm Petri dish, Falcon) in a serum-free macrophage medium (Macrophage-SFM, Gibco Life Technologies) supplemented with 50ng/mL human recombinant M-CSF (R&D Systems). After an overnight incubation cells were cholesterol loaded for 24 hrs by addition of enzymatically modified LDL (E-LDL; 40 µg/ml), which was prepared as previously described (31). The incubation medium was further supplemented with ^14C-cholesterol (1.5 µCi/ml) and ^3H-choline (10µCi/ml) in order to label cellular cholesterol and choline containing phospholipids. In a subset of experiments cells were stimulated with 10 µM forskolin during the labeling period. After 24 hrs monocytes were washed and incubated for 17 hrs with or without 10 µg/ml ApoA-I (Sigma) in macrophage medium containing 0.1 % bovine serum albumin and 50ng/mL M-CSF. After incubation the media were removed and centrifuged at 800 x g to precipitate any detached cells. Cells were lysed in 0.2% SDS. Lipids were extracted by liquid extraction according to the method of Bligh and Dyer (13). ^3H and ^14C radioactivities of the total lipid extracts were measured by liquid scintillation counting in order to distinguish between ^3H labeled phospholipids and ^14C-cholesterol. Lipid efflux was calculated as percentage of disintegrations per minute (dpm) in medium divided by the sum of dpm recovered from medium and cells. The ApoA-I specific efflux is expressed a percent of basal unstimulated efflux observed in serum-free macrophage medium without ApoA-I. Statistical Analysis. […]

In the next assay the test system is human fibroblasts. Briefly: G2-phase cell cycle arrest in fibroblasts. The assay is classed as cell-based.
The next assay has as its system neutral sphingomyelinase. The experiment in a line: Ceramide formation from sphingomyelin. The assay is classed as cell-based.
A further assay has as its system IL-1β. Briefly: Inhibition of pro-IL-1β processing and IL-1β release. The assay is classed as cell-based.

Take `C=C[C@@]1(C)CC(=O)[C@]2(O)[C@@]3(C)[C@@H](O)CCC(C)(C)[C@@H]3[C@H](O)[C@H](OC(C)=O)[C@@]2(C)O1` [forskolin]: the Cholesterol efflux in the assay with mononuclear phagocytes [1] (596A/A) was found to be 126.7 ± 37.4%; in the assay on mononuclear phagocytes [1] (wt/wt 596G/G, 2589A/A), 121.8 ± 16.4%. Moreover, the Phospholipid efflux in the assay on mononuclear phagocytes [2] (596A/A) was determined as 136.7 ± 12.8%; with mononuclear phagocytes [2] (2589G/G), 124.5 ± 25.8%; in the assay on mononuclear phagocytes [2] (wt/wt 596G/G, 2589A/A), 135.4 ± 20.2%.

In the case of `COc1ccc(Cl)cc1C(=O)NCCc1ccc(S(=O)(=O)NC(=O)NC2CCCCC2)cc1` [glyburide], in the assay with human fibroblasts, the “G2-phase cell cycle arrest” value is on record as “releases human fibroblasts from G2-phase cell cycle arrest”. In addition, the “ceramide formation from sphingomyelin mediated by neutral sphingomyelinase” value in the assay with neutral sphingomyelinase is reported as “inhibits”. In addition, in the assay with IL-1β, the “Caspase I mediated processing of pro-IL-1β and release of mature IL-1β” value was “inhibits”.
